Measured values as given in ChEMBL document CHEMBL1201862, “PubChem BioAssay data set” (2004).
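Five compound concentrations were applied to cells in 96-well plates for 48 hours; endpoints were derived by simple linear interpolation of the resulting dose-response curve. GI50 is the concentration that inhibits growth by half.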 Calls of active or inactive are those of the source. No stated cut-off is given here; in the data, active = GI50 up to about 1.1 µM and inactive = higher.

Tests used:
Test in all cases: NCI tumour cell line growth inhibition, 48 h
A549 = test system: A549
CCRF-CEM = test system: CCRF-CEM
EKVX = test system: EKVX
HCC 2998 = test system: HCC 2998
HCT-116 = test system: HCT-116
HOP-62 = test system: HOP-62
HT-29 = test system: HT-29
Hs-578T = test system: Hs-578T
MDA-MB-435 = test system: MDA-MB-435
NCI-H460 = test system: NCI-H460
NCI/ADR-RES = test system: NCI/ADR-RES
OVCAR-8 = test system: OVCAR-8
RXF 393 = test system: RXF 393
SF-295 = test system: SF-295
SK-OV-3 = test system: SK-OV-3
SN12C = test system: SN12C
SR = test system: SR
TK-10 = test system: TK-10
UO-31 = test system: UO-31

Compound | GI50 (A549) | GI50 (CCRF-CEM) | GI50 (EKVX) | GI50 (HCC 2998) | GI50 (HCT-116) | GI50 (HOP-62) | GI50 (HT-29) | GI50 (Hs-578T) | GI50 (MDA-MB-435) | GI50 (NCI-H460) | GI50 (NCI/ADR-RES) | GI50 (OVCAR-8) | GI50 (RXF 393) | GI50 (SF-295) | GI50 (SK-OV-3) | GI50 (SN12C) | GI50 (SR) | GI50 (TK-10) | GI50 (UO-31)
C=CCN1C(=O)/C(=C/c2ccc(C)cc2)NC1=S | 76.4 µM (inactive) | 33 µM (inactive) | 37.8 µM (inactive) | > 100 µM (inactive) | > 100 µM (inactive) | > 100 µM (inactive) | 96.6 µM (inactive) | > 100 µM (inactive) | 76.6 µM (inactive) | > 100 µM (inactive) | 81.7 µM (inactive) | > 100 µM (inactive) | > 100 µM (inactive) | 75 µM (inactive) | > 100 µM (inactive) | > 100 µM (inactive) | 85.9 µM (inactive) | > 100 µM (inactive) | > 100 µM (inactive)
Brc1ccc(-c2ccc(-c3ccc(Br)s3)s2)s1 | > 100 µM (inactive) | > 100 µM (inactive) | > 100 µM (inactive) | > 100 µM (inactive) | > 100 µM (inactive) | > 100 µM (inactive) | > 100 µM (inactive) | > 100 µM (inactive) | > 100 µM (inactive) | > 100 µM (inactive) | > 100 µM (inactive) | > 100 µM (inactive) | > 100 µM (inactive) | > 100 µM (inactive) | > 100 µM (inactive) | > 100 µM (inactive) | > 100 µM (inactive) | > 100 µM (inactive) | > 100 µM (inactive)
CC(NNC(=O)c1cc[n+]([BH2-]C#N)cc1)c1ccccc1 (stereo unspecified) | > 100 µM (inactive) | > 100 µM (inactive) | > 100 µM (inactive) | > 100 µM (inactive) | > 100 µM (inactive) | > 100 µM (inactive) | > 100 µM (inactive) | > 100 µM (inactive) | > 100 µM (inactive) | > 100 µM (inactive) | > 100 µM (inactive) | > 100 µM (inactive) | > 100 µM (inactive) | > 100 µM (inactive) | > 100 µM (inactive) | > 100 µM (inactive) | > 100 µM (inactive) | > 100 µM (inactive) | > 100 µM (inactive)
CC(C)(C)C#CI1OC(=O)c2ccccc21 | 8.49 µM (inactive) | 1.37 µM (inactive) | 4.89 µM (inactive) | 9.53 µM (inactive) | 2.48 µM (inactive) | 10 µM (inactive) | 4.16 µM (inactive) | 8.75 µM (inactive) | 3.72 µM (inactive) | 4.62 µM (inactive) | 5.52 µM (inactive) | 4.36 µM (inactive) | 3.62 µM (inactive) | 14.3 µM (inactive) | 11.4 µM (inactive) | 5.2 µM (inactive) | 0.74 µM (active) | 3.86 µM (inactive) | 4.41 µM (inactive)
CC(O)C1(CNc2cc(Cl)nc(N)n2)CCCC1 (stereo unspecified) | > 100 µM (inactive) | > 100 µM (inactive) | > 100 µM (inactive) | 23.4 µM (inactive) | > 100 µM (inactive) | > 100 µM (inactive) | > 100 µM (inactive) | > 100 µM (inactive) | > 100 µM (inactive) | > 100 µM (inactive) | > 100 µM (inactive) | > 100 µM (inactive) | > 100 µM (inactive) | > 100 µM (inactive) | > 100 µM (inactive) | > 100 µM (inactive) | > 100 µM (inactive) | > 100 µM (inactive) | > 100 µM (inactive)
CCC(C)OC(=O)/C(Br)=C1/OC(=O)c2ccccc2-c2ccccc21 (stereo unspecified) | 36.6 µM (inactive) | 4.78 µM (inactive) | > 100 µM (inactive) | 16.9 µM (inactive) | 17.6 µM (inactive) | 15.9 µM (inactive) | 23.2 µM (inactive) | 45.4 µM (inactive) | 26.9 µM (inactive) | 26.2 µM (inactive) | 20.4 µM (inactive) | 37.6 µM (inactive) | 9.75 µM (inactive) | 35.6 µM (inactive) | 45.6 µM (inactive) | 34.2 µM (inactive) | > 10 µM (inactive) | 19.4 µM (inactive) | 25.2 µM (inactive)
O=C1C(Br)=C(Br)C(=O)c2c(O)ccc(O)c21 | 19.3 µM (inactive) | 0.189 µM (active) | 20.7 µM (inactive) | 19.8 µM (inactive) | 3.56 µM (inactive) | 9.38 µM (inactive) | 3.15 µM (inactive) | 27.1 µM (inactive) | 3.07 µM (inactive) | 16.3 µM (inactive) | 12.2 µM (inactive) | 8.83 µM (inactive) | 2.65 µM (inactive) | 17.8 µM (inactive) | 20 µM (inactive) | 7.66 µM (inactive) | 0.0352 µM (active) | 2.27 µM (inactive) | 2.79 µM (inactive)
COc1cccc(C2SCC(=O)N2c2ccc(-n3c(-c4ccccc4)nc4ccccc4c3=O)cc2)c1OC (stereo unspecified) | > 100 µM (inactive) | > 100 µM (inactive) | > 100 µM (inactive) | > 100 µM (inactive) | > 100 µM (inactive) | > 100 µM (inactive) | > 100 µM (inactive) | > 100 µM (inactive) | > 100 µM (inactive) | > 100 µM (inactive) | > 100 µM (inactive) | > 100 µM (inactive) | > 100 µM (inactive) | > 100 µM (inactive) | > 100 µM (inactive) | > 100 µM (inactive) | > 100 µM (inactive) | > 100 µM (inactive) | > 43.7 µM (inactive)
O=C(O)CN1CCNCCN(CC(=O)O)CCNCC1 | 5.57 µM (inactive) | 4.8 µM (inactive) | > 60.3 µM (inactive) | > 82.2 µM (inactive) | 4.75 µM (inactive) | > 100 µM (inactive) | 13.5 µM (inactive) | > 24.1 µM (inactive) | 33 µM (inactive) | 8.49 µM (inactive) | > 100 µM (inactive) | 42.3 µM (inactive) | > 100 µM (inactive) | > 87.7 µM (inactive) | 20.1 µM (inactive) | > 100 µM (inactive) | 5.14 µM (inactive) | > 100 µM (inactive) | > 100 µM (inactive)
COc1ccccc1NC(=S)N/N=C/c1ccccn1 | 0.564 µM (active) | 0.276 µM (active) | 0.293 µM (active) | 2.37 µM (inactive) | < 0.0204 µM (active) | 0.247 µM (active) | < 0.01 µM (active) | 14.3 µM (inactive) | 1.61 µM (inactive) | 0.495 µM (active) | 0.0253 µM (active) | 0.131 µM (active) | 10.9 µM (inactive) | 0.621 µM (active) | 0.446 µM (active) | 0.74 µM (active) | 0.71 µM (active) | 0.367 µM (active) | 0.296 µM (active)
C[C@H](CCC1=NCCN1)[C@H]1CC[C@H]2[C@@H]3CC[C@@H]4C[C@H](O)CC[C@]4(C)[C@H]3CC[C@]12C | 8 µM (inactive) | 4.08 µM (inactive) | 13.3 µM (inactive) | 5.15 µM (inactive) | 4.72 µM (inactive) | 3.46 µM (inactive) | 0.575 µM (active) | 14.8 µM (inactive) | 4.53 µM (inactive) | 2.91 µM (inactive) | 16.1 µM (inactive) | 12 µM (inactive) | 12.2 µM (inactive) | 3.4 µM (inactive) | 18.8 µM (inactive) | 8.85 µM (inactive) | 2.55 µM (inactive) | 7.74 µM (inactive) | 14.2 µM (inactive)
C/C=C(/C)C(=O)O[C@H]1C(C)=C[C@]23C(=O)[C@@H](C=C(COC(C)=O)[C@@H](O)[C@]12O)[C@H]1[C@@H](C[C@H]3C)[C@@]1(C)OC(=O)/C(C)=C\C | 0.15 µM (active) | 0.486 µM (active) | 2.9 µM (inactive) | 1.49 µM (inactive) | 2.14 µM (inactive) | 2.37 µM (inactive) | 0.411 µM (active) | 0.0792 µM (active) | 2.13 µM (inactive) | 0.0244 µM (active) | 2.65 µM (inactive) | 3.72 µM (inactive) | 2.65 µM (inactive) | 1.08 µM (active) | 4.19 µM (inactive) | 1.69 µM (inactive) | 2.67 µM (inactive) | 2.72 µM (inactive) | 0.442 µM (active)
CCN(CC)c1ccc2cc(C(N)=O)/c(=N/c3ccc(F)cc3)oc2c1 | 91 µM (inactive) | > 100 µM (inactive) | 81.5 µM (inactive) | 59.2 µM (inactive) | 5.07 µM (inactive) | 28 µM (inactive) | 6.95 µM (inactive) | 47.9 µM (inactive) | > 100 µM (inactive) | 6.76 µM (inactive) | 35.6 µM (inactive) | 22.8 µM (inactive) | 22.8 µM (inactive) | 10.3 µM (inactive) | 58.6 µM (inactive) | 45.4 µM (inactive) | 4.65 µM (inactive) | 10.3 µM (inactive) | 26.9 µM (inactive)
C[C@]12CC[C@H]3[C@@H](CCC4=CC(=O)C=C[C@@]43OC(=O)C(F)(F)F)[C@@H]1CCC2=O | > 52.6 µM (inactive) | > 100 µM (inactive) | > 100 µM (inactive) | > 100 µM (inactive) | > 34.7 µM (inactive) | > 100 µM (inactive) | > 100 µM (inactive) | > 100 µM (inactive) | > 100 µM (inactive) | > 100 µM (inactive) | > 65.8 µM (inactive) | > 100 µM (inactive) | > 100 µM (inactive) | > 100 µM (inactive) | > 100 µM (inactive) | > 100 µM (inactive) | > 100 µM (inactive) | > 100 µM (inactive) | > 100 µM (inactive)
